Experimental findings from patent US20080200454A1, “CARBON-LINKED TETRAHYDRO-PYRAZOLO-PYRIDINE MODULATORS OF CATHEPSIN S” (priority 2007, published 2008) are described below.

The IC50 is the midpoint of a concentration-inhibition curve.

One assay deals with Recombinant human cathepsin S (CatS) (Homo sapiens, UniProt P25774). Kind of assay: Recombinant human cathepsin S (CatS) inhibition assay, fluorogenic substrate Z-Valine-Valine-Arginine-AMC.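 Also: Baculovirus-expressed CatS in pH 5.0 sodium acetate buffer with DTT and NaCl, fluorescence read each minute over 20 min, inhibition derived from rate slope.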
Chain of Recombinant human cathepsin S (CatS) (P25774 115-331): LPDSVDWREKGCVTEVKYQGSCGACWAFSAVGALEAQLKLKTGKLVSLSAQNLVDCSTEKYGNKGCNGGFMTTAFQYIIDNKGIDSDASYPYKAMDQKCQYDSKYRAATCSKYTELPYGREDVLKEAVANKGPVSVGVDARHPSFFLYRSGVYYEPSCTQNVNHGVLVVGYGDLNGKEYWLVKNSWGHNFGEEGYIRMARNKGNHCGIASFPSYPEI
Details: not given
On to `CS(=O)(=O)N1CCc2c(c(-c3ccc(Cl)c(CCc4ccc(Cl)c(CNCc5ccccc5)c4)c3)nn2CCCN2CCOCC2)C1` [Example 288, 1-[2-Chloro-5-(2-{2-chloro-5-[5-(methylsulfonyl)-1-(3-morpholin-4-ylpropyl)-4,5,6,7-tetrahydro-1H-pyrazolo[4,3-c]pyridin-3-yl]phenyl}ethyl)phenyl]-N-(phenylmethyl)methanamine], for which the IC50 was found to be 120 nM.
In the case of `CS(=O)(=O)N1CCc2c(c(-c3ccc(Cl)c(C#Cc4ccc(CO)cc4)c3)nn2CCCN2CCOCC2)C1` [Example 5, (4-{2-Chloro-5-[5-methanesulfonyl-1-(3-morpholin-4-yl-propyl)-4,5,6,7-tetrahydro-1H-pyrazolo[4,3-c]pyridin-3-yl]-phenylethynyl}-phenyl)-methanol], the IC50 was 290 nM.
Regarding `CS(=O)(=O)N1CCc2c(c(-c3ccc(Cl)c(C#Cc4ccc(CNCc5ccc(Cl)cc5)cc4)c3)nn2CC(O)CN2CCCCC2)C1` (stereo not shown) [Example 361, 1-[3-(4-Chloro-3-{[4-({[(4-chlorophenyl)methyl]amino}methyl)phenyl]ethynyl}phenyl)-5-(methylsulfonyl)-4,5,6,7-tetrahydro-1H-pyrazolo[4,3-c]pyridin-1-yl]-3-piperidin-1-ylpropan-2-ol], the IC50 stood at 170 nM.
The same measure, in the same setting: with `NC(=O)N1CCc2c(c(-c3ccc(Cl)c(C#Cc4ccc(CNCc5ccc(Cl)cc5)cc4)c3)nn2CCCN2CCSCC2)C1` [Example 160, 3-(4-Chloro-3-{[4-({[(4-chlorophenyl)methyl]amino}methyl)phenyl]ethynyl}phenyl)-1-(3-thiomorpholin-4-ylpropyl)-1,4,6,7-tetrahydro-5H-pyrazolo[4,3-c]pyridine-5-carboxamide] the figure was 60 nM; with `CC(C)(C)OC(=O)N1CCC(C2CCN(C[C@H](O)Cn3nc(-c4ccc(Cl)c(C#Cc5ccc(Cl)cc5)c4)c4c3CCN(S(C)(=O)=O)C4)CC2)CC1` [Example 230, 1,1-Dimethylethyl 1′-{(2S)-3-[3-{4-chloro-3-[(4-chlorophenyl)ethynyl]phenyl}-5-(methylsulfonyl)-4,5,6,7-tetrahydro-1H-pyrazolo[4,3-c]pyridin-1-yl]-2-hydroxypropyl}-4,4′-bipiperidine-1-carboxylate], 10 nM.
Still for that read-out and setting: with `CS(=O)(=O)N1CCc2c(c(-c3ccc(Cl)c(C#Cc4ccc(CNCc5ccc(Cl)cc5)cc4)c3)nn2CCCN2CCN(c3cccc(O)c3)CC2)C1` [Example 409, 3-(4-{3-[3-(4-Chloro-3-{[4-({[(4-chlorophenyl)methyl]amino}methyl)phenyl]ethynyl}phenyl)-5-(methylsulfonyl)-4,5,6,7-tetrahydro-1H-pyrazolo[4,3-c]pyridin-1-yl]propyl}piperazin-1-yl)phenol] the figure was 20 nM.

The same assay, now with this note: CatS IC50.
`CS(=O)(=O)N1CCc2c(c(-c3ccc(Cl)c(C#Cc4ccc(NCC#N)cc4)c3)nn2CCCN2CCOCC2)C1` [Example 322, {[4-({2-Chloro-5-[5-(methylsulfonyl)-1-(3-morpholin-4-ylpropyl)-4,5,6,7-tetrahydro-1H-pyrazolo[4,3-c]pyridin-3-yl]phenyl}ethynyl)phenyl]amino}acetonitrile]: the IC50 came out at 730 nM.
On the same count and under the same terms, for `NC(=O)C(=O)N1CCc2c(c(-c3ccc(Cl)c(C#Cc4ccc(Cl)c(C(=O)N5CCNCC5)c4)c3)nn2CCCN2CCSCC2)C1` [Example 568, 2-[3-(4-Chloro-3-{[4-chloro-3-(piperazin-1-ylcarbonyl)phenyl]ethynyl}phenyl)-1-(3-thiomorpholin-4-ylpropyl)-1,4,6,7-tetrahydro-5H-pyrazolo[4,3-c]pyridin-5-yl]-2-oxoacetamide] the value was 140 nM.
The same measure, in the same setting: with `CS(=O)(=O)N1CCc2c(c(-c3ccc(Cl)c(C#Cc4c[nH]cn4)c3)nn2CCCN2CCOCC2)C1` [Example 441, 3-[4-Chloro-3-(1H-imidazol-4-ylethynyl)phenyl]-5-(methylsulfonyl)-1-(3-morpholin-4-ylpropyl)-4,5,6,7-tetrahydro-1H-pyrazolo[4,3-c]pyridine] the figure was 3060 nM; with `CS(=O)(=O)N1CCc2c(c(-c3ccc(Cl)c(C#Cc4ccc(CNCc5ccc(Cl)cc5)cc4)c3)nn2CCCN2CCCOCC2)C1` [Example 399, 1-{4-[(2-Chloro-5-{5-(methylsulfonyl)-1-[3-(1,4-oxazepan-4-yl)propyl]-4,5,6,7-tetrahydro-1H-pyrazolo[4,3-c]pyridin-3-yl}phenyl)ethynyl]phenyl}-N-[(4-chlorophenyl)methyl]methanamine], 110 nM; with `C[C@H]1COCCN1CCCn1nc(-c2ccc(Cl)c(C#Cc3ccc(Cl)c(C(=O)NCCCNC(=O)OC(C)(C)C)c3)c2)c2c1CCN(C(=O)C(N)=O)C2` [Example 577, tert-Butyl (3-{[(5-{[5-(5-[amino(oxo)acetyl]-1-{3-[(3S)-3-methylmorpholin-4-yl]propyl}-4,5,6,7-tetrahydro-1H-pyrazolo[4,3-c]pyridin-3-yl)-2-chlorophenyl]ethynyl}-2-chlorophenyl)carbonyl]amino}propyl)carbamate], 20 nM.
Regarding `CS(=O)(=O)N1CCc2c(c(-c3ccc(Cl)c(C#Cc4ccc(Cl)c(CNC5CC5)c4)c3)nn2CCCN2CCCCC2)C1` [Example 603, N-[2-Chloro-5-({2-chloro-5-[5-(methylsulfonyl)-1-(3-piperidin-1-ylpropyl)-4,5,6,7-tetrahydro-1H-pyrazolo[4,3-c]pyridin-3-yl]phenyl}ethynyl)benzyl]cyclopropanamine], the IC50 was 50 nM.
Consider `CC(C)NCc1cc(C#Cc2cc(-c3nn(CCCN4CCOC[C@@H]4C)c4c3CN(C(=O)C(N)=O)CC4)ccc2Cl)ccc1Cl` [Example 619, 2-(3-{4-Chloro-3-[(4-chloro-3-{[(1-methylethyl)amino]methyl}phenyl)ethynyl]phenyl}-1-{3-[(3S)-3-methylmorpholin-4-yl]propyl}-1,4,6,7-tetrahydro-5H-pyrazolo[4,3-c]pyridin-5-yl)-2-oxoacetamide], for which the IC50 was determined as 20 nM.
As to `CS(=O)(=O)N1CCc2c(c(-c3ccc(Cl)c(C#Cc4ccc(CN[C@H](CO)c5ccccc5)cc4)c3)nn2CCCN2CCOCC2)C1` [Example 342, (2S)-2-({[4-({2-Chloro-5-[5-(methylsulfonyl)-1-(3-morpholin-4-ylpropyl)-4,5,6,7-tetrahydro-1H-pyrazolo[4,3-c]pyridin-3-yl]phenyl}ethynyl)phenyl]methyl}amino)-2-phenylethanol], the IC50 was determined as 310 nM.
`CS(=O)(=O)N1CCc2c(c(-c3ccc(Cl)c(C#Cc4ccc(-c5nc6ccccc6[nH]5)cc4)c3)nn2CCCN2CCOCC2)C1` [Example 320, 3-(3-{[4-(1H-Benzimidazol-2-yl)phenyl]ethynyl}-4-chlorophenyl)-5-(methylsulfonyl)-1-(3-morpholin-4-ylpropyl)-4,5,6,7-tetrahydro-1H-pyrazolo[4,3-c]pyridine]: the IC50 amounted to 90 nM.
With `NC(=O)N1CCc2c(c(-c3ccc(Cl)c(C#Cc4ccc(CNCc5cccc(Cl)c5)cc4)c3)nn2CCCN2CCSCC2)C1` [Example 487, 3-(4-Chloro-3-{[4-({[(3-chlorophenyl)methyl]amino}methyl)phenyl]ethynyl}phenyl)-1-(3-thiomorpholin-4-ylpropyl)-1,4,6,7-tetrahydro-5H-pyrazolo[4,3-c]pyridine-5-carboxamide], the IC50 was determined as 60 nM.
